In US7772221B2, “Diaminopropane derived macrocycles as inhibitors of β amyloid production” (Bristol-Meyers Squibb Company, priority 2007, dated 2010) one finds ring closure, yield after HPLC, ring closure, isolated yield and IC50 data, which are given here for eleven compounds.

Like-named read-outs stand apart in the source and are kept apart here. A value given as a limit tells only on which side of the number the result lay.

For data set [1] the following is noted: rcm bond.
The conditions of data set [2]: rcm bond, 1,2-dichloroethane, 60.0 °C.
In the next data set the target is T1, BACE1 enzyme (Homo sapiens, UniProt P56817).
T1 construct: endogenous in cells; washed 48,000 x g membrane pellet / cell homogenate
T1 sequence (P56817 46-501): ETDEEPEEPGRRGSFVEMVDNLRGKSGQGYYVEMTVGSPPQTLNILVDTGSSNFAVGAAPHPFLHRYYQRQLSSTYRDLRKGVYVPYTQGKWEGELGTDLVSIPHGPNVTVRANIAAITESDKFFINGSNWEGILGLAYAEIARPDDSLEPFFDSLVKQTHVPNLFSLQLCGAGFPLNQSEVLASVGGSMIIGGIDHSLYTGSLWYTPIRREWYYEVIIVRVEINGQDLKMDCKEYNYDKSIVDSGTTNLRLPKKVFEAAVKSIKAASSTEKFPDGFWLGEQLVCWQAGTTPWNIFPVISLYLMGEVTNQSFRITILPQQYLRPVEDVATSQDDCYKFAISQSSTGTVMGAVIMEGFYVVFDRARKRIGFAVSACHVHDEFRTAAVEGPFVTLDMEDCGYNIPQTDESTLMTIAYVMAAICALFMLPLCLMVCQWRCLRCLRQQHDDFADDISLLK
Briefly: Radioligand displacement assay with a radiolabeled BACE inhibitor. It is filed as binding. Conditions: HEK293-9B.A1 cell homogenate overexpressing BACE1, 1 nM radioligand, pH 5.0, 1.5 hr at 25° C.; read-out: Activity Rating (activity based on IC50 values). From the text: There are a number of methods by which inhibitors of the BACE enzyme can be identified experimentally. The enzyme can be obtained from membrane samples from natural tissues or cultured cells or can be expressed recombinantly in a host cell by well known methods of molecular biology. The whole enzyme or a portion thereof can be expressed, for example, in bacterial, insect or mammalian cells to obtain a catalytically active enzyme species. The enzymatic activity and/or ligand binding capability of the enzyme can be assessed within these membrane samples, or the enzyme can be purified to varying extents. As an illustrative example, the nucleic acid sequence encoding the pro and catalytic domains of human BACE can be appended on the 5′ end with an untranslated and signal sequence from the gene for acetylcholinesterase, and on the 3′ end with a sequence encoding a poly-histidine tag. This cDNA can then be expressed in Drosophila melanogaster S2 cells in which the signal and pro sequences of the transcribed/translated protein are removed by cellular proteases and the catalytic domain, appended by a C-terminal poly-histidine tag, is secreted out into the cellular medium. The enzyme can then be purified from the culture medium by nickel affinity chromatography by methods well known to those trained in the art [Mallender, W. et al., “Characterization of recombinant, soluble beta-secretase from an insect cell expression system.” Mol. Pharmacol. 2001, 59: 619-626]. Similar strategies for expressing and purifying various forms of BACE in bacterial, mammalian and other cell types would be known to one skilled in the art. A preferred method for determining the potency of a test compound in binding to the BACE enzyme is by monitoring the displacement of a suitable radioligand.
Radioligand displacement assays with a radiolabeled BACE inhibitor (WO 2004 013098, compound 3, where the methoxy group is substituted for C(^3H)3) were carried out using standard methods (Keen, M. (1999) in Receptor Binding Techniques (Walker, J. M. ed) p. 106 Humana Press, Totowa, N.J.). The HEK293-9B.A1 cell line, which overexpresses the BACE1 enzyme, was derived from HEK293 cells (Simmons, N. L. (1990) A cultured human renal epithelioid cell line responsive to vasoactive intestinal peptide. Exp. Physiol. 75:309-19.) by RAGE™ (Harrington, J. J. et al. (2001) Creation of genome-wide protein expression libraries using random activation of gene expression. Nat. Biotechnol. 19:440-5.; U.S. Pat. Nos. 6,410,266 and 6,361,972). T225 flask cultures of HEK293-9B.A1 were grown to 80% confluency in DMEM supplemented with 2 mM L-glutamine, 10 μg/mL penicillin, 10 μg/mL streptomycin, 3 μg/mL puromycin, 100 nM methotrexate, and 10% fetal bovine serum (Invitrogen, Carlsbad, Calif.), harvested, and resuspended at 2×10^8 cells per 10 mL of lysis buffer consisting of 50 mM HEPES pH 7.0 containing a protease inhibitor cocktail of AEBSF 104 μM, aprotinin 80 nM, leupeptin 2 μM, bestatin 4 μM, pepstatin A 1.5 μM, and E-64 1.4 μM (0.1% of protease inhibitor cocktail P8340, Sigma-Aldrich, St. Louis, Mo.) at 4° C. The resuspended cells were homogenized using a Polytron (Brinkman, Westbury, N.Y.) at setting 6 for 10 sec., then centrifuged at 48,000×g for 10 min. The resulting pellet was washed by repeating the resuspension, homogenization and centrifugation steps. The final pellet was resuspended in buffer at 4° C. to yield a total protein concentration of 5 mg/mL, then aliquots were frozen in liquid nitrogen for further storage at −70° C. Immediately before carrying out a binding assay, an aliquot of cell homogenate was thawed and diluted to a concentration of 100 μg/mL in assay buffer consisting of 50 mM HEPES pH 5.0 and 0.1% CHAPSO. […]

Compound `CCCC(CCC)C(=O)N(C)[C@H]1CC=CCO[C@@H]2C[C@H](NC[C@@H](O)[C@H](Cc3ccccc3)NC1=O)c1cc(OC)ccc12` registered a ring closure, yield after HPLC in data set [1] (from C=CCO[C@@H]1C[C@H](NC[C@@H](O)[C@H](Cc2ccccc2)NC(=O)[C@H](CC=C)N(C)C(=O)C(CCC)CCC)c2cc(OC)ccc21, 15-membered ring, Hoveyda-Grubbs II (9 mol%), DCM, 25.0 °C, 16.0 h) of 34%. As for `CCCCCS(=O)(=O)N(C)[C@H]1CC=CCCCc2ccc(C)cc2CNC[C@@H](O)[C@H](Cc2cc(F)cc(F)c2)NC1=O`, in data set [2] (from (S)-N-((2S,3R)-1-(3,5-difluorophenyl)-3-hydroxy-4-(5-methyl-2-(pent-4-enyl)benzylamino)butan-2-yl)-2-(N-methylpentylsulfonamido) pent-4-enamide, 16-membered ring, Hoveyda-Grubbs (20 mol%), 6.3 mM), the ring closure, isolated yield is 18%.

In turn, `CCCOc1ccc2c(c1)[C@@H]1C[C@H]2OCC=CCCCC(=O)N[C@@H](Cc2cc(F)cc(F)c2)[C@H](O)CN1` gave a ring closure, yield after HPLC in data set [1] (from C=CCCCC(=O)N[C@@H](Cc1cc(F)cc(F)c1)[C@H](O)CN[C@H]1C[C@@H](OCC=C)c2ccc(OCCC)cc21, 16-membered ring, Hoveyda-Grubbs II, DCM, 25.0 °C, 16.0 h) of 20%. `COc1ccc2c(c1)[C@@H]1CC2N(C(=O)OCc2ccccc2)CCC=CC[C@H](N(C)C(C)=O)C(=O)N[C@@H](Cc2ccccc2)[C@H](O)CN1`: the ring closure, yield after HPLC in data set [1] (from C=CCCN(C(=O)OCc1ccccc1)C1C[C@H](NC[C@@H](O)[C@H](Cc2ccccc2)NC(=O)[C@H](CC=C)N(C)C(C)=O)c2cc(OC)ccc21, 16-membered ring) came out at 83%.

`CCCCCS(=O)(=O)N(C)[C@H]1CC=CCCCc2ccc(C(F)(F)F)cc2CNC[C@@H](O)[C@H](Cc2cc(F)cc(F)c2)NC1=O` [Example 40, N-((4R,5S,8S)-5-(3,5-difluorobenzyl)-4-hydroxy-17-(trifluoromethyl)-7-oxo-1,2,3,4,5,6,7,8,9,12,13,14-dodecahydrobenzo[g][1,5]diazacyclohexadecin-8-yl)-N-methylpentane-1-sulfonamide]: the ring closure, isolated yield in data set [2] (from C=CCCCc1ccc(C(F)(F)F)cc1CNC[C@@H](O)[C@H](Cc1cc(F)cc(F)c1)NC(=O)[C@H](CC=C)N(C)S(=O)(=O)CCCCC, 16-membered ring, Hoveyda-Grubbs (19 mol%), 6.5 mM, 16.0 h) amounted to 32%. In addition, the concentration for half-maximal inhibition (IC50) on BACE1 enzyme lay in the range of 10 to 500 nM. As for `CC(C)C[C@@H]1COCC=CCC[C@H](N(C)S(=O)(=O)CCC(F)(F)F)C(=O)N[C@@H](Cc2cc(F)cc(F)c2)[C@H](O)CN1` [Example 42, N-((3R,6R,7S,10S)-7-(3,5-difluorobenzyl)-6-hydroxy-3-isobutyl-9-oxo-1-oxa-4,8-diazacyclopentadec-13-en-10-yl)-3,3,3-trifluoro-N-methylpropane-1-sulfonamide], the ring closure, isolated yield in data set [2] (from C=CCC[C@@H](C(=O)N[C@@H](Cc1cc(F)cc(F)c1)[C@H](O)CN[C@@H](COCC=C)CC(C)C)N(C)S(=O)(=O)CCC(F)(F)F, 15-membered ring, Hoveyda-Grubbs (16 mol%), 19.0 mM, 16.0 h) worked out at 19%. Also, the half-inhibitory concentration (IC50) on BACE1 enzyme is more than 500 nM. `CCCC[C@H](C)C(=O)N(C)[C@H]1CC=CCOc2ccc(OC)cc2CNC[C@@H](O)[C@H](Cc2ccccc2)NC1=O` [Example 59, (S)-N-((6S,9S,10R)-9-benzyl-10-hydroxy-15-methoxy-7-oxo-2,5,6,7,8,9,10,11,12,13-decahydrobenzo[b][1,5,9]oxadiazacyclopentadecin-6-yl)-N,2-dimethylhexanamide] came in with a ring closure, yield after HPLC in data set [1] (from C=CCOc1ccc(OC)cc1CNC[C@@H](O)[C@H](Cc1ccccc1)NC(=O)[C@H](CC=C)N(C)C(=O)[C@@H](C)CCCC, 15-membered ring, Hoveyda-Grubbs II (21 mol%), DCM, 4.3 mM, 40.0 °C, 4.0 h) of 49%. Besides, the IC50 at BACE1 enzyme is more than 500 nM.

`CC(C)C[C@@H]1NC(=O)CCCC=CCO[C@@H]2C[C@H](NC[C@H]1O)c1cc(OC(C)C)ccc12` [Example 79, (1S,4R,5S,15R)-4-hydroxy-5-isobutyl-19-isopropoxy-14-oxa-2,6-diaza-tricyclo[13.6.1.0^16,21]docosa-11,16(21),17,19-tetraen-7-one]: the 50% inhibitory concentration (IC50) at BACE1 enzyme was more than 500 nM. Still for that read-out and setting: in the case of `O=C1CCCC=CCO[C@@H]2C[C@H](NC[C@@H](O)[C@H](Cc3cc(F)cc(F)c3)N1)c1cc(-c3cc(C(F)(F)F)cc(C(F)(F)F)c3)ccc12` [Example 91, (1S,4R,5S,15R)-19-(3,5-bis-trifluoromethyl-phenyl)-5-(3,5-difluoro-benzyl)-4-hydroxy-14-oxa-2,6-diaza-tricyclo[13.6.1.0^16,21]docosa-11,16(21),17,19-tetraen-7-one] it was more than 500 nM; in that of `CC(C)(C)OC(=O)N1CC2CN(c3ccc4c(c3)[C@@H]3C[C@H]4OCC=CCCCC(=O)N[C@@H](Cc4cc(F)cc(F)c4)[C@H](O)CN3)CC2C1` (stereo partly drawn) [Example 96, 5-[(1S,4R,5S,15R)-5-(3,5-difluoro-benzyl)-4-hydroxy-7-oxo-14-oxa-2,6-diaza-tricyclo[13.6.1.0^16,21]docosa-11,16(21),17,19-tetraen-19-yl]-hexahydro-pyrrolo[3,4-c]pyrrole-2-carboxylic acid tert-butyl ester], 10 to 500 nM. Same read-out and setting: with `CCCC[C@H](C)C(=O)N(C)[C@H]1CC=CCO[C@@H]2C[C@H](NC[C@@H](O)[C@H](Cc3ccccc3)NC1=O)c1cc(C)cc(C)c12` [Example 100, (S)-2-methyl-hexanoic acid ((1S,4R,5S,8S,14R)-5-benzyl-4-hydroxy-16,18-dimethyl-7-oxo-13-oxa-2,6-diaza-tricyclo[12.6.1.0^15,20]henicosa-10,15(20),16,18-tetraen-8-yl)-methyl-amide] the figure was less than 10 nM.
